In patent US20110039721A1, “METHOD FOR PREDICTION ABOUT CARCINOGENICITY OF SUBSTANCE IN RODENT” (Chemicals Evaluation and Research Institute, priority 2007, published 2011):

Assays:
[1] = tested on: mRNA expressed from the genes (A) to (D) in rat liver; experiment: Behavior of genes (mRNA expression level, oligo-DNA microarray) in rat liver after 28-day oral administration; type: in vivo; conditions: for Behavior of gene caused by administration of chemical substance, Gene No. 4846 / Behavior of gene caused by administration of chemical substance, Gene No. 2026 / Behavior of gene caused by administration of chemical substance, Gene No. 4218 / Behavior of gene caused by administration of chemical substance, Gene No. 6182 / Behavior of gene caused by administration of chemical substance, Gene No. 5600: gene group (A); for Behavior of gene caused by administration of chemical substance, Gene No. 4846: Unigene No. Rn.144554; for Behavior of gene caused by administration of chemical substance, Gene No. 2026 / Behavior of gene caused by administration of chemical substance, Gene No. 4218: Unigene No. Rn.167075; for Behavior of gene caused by administration of chemical substance, Gene No. 6182: Unigene No. Rn.5834; for Behavior of gene caused by administration of chemical substance, Gene No. 5600: Unigene No. Rn.9836; for Behavior of gene caused by administration of chemical substance, Gene No. 1494 / Behavior of gene caused by administration of chemical substance, Gene No. 2045 / Behavior of gene caused by administration of chemical substance, Gene No. 2203: gene group (B); for Behavior of gene caused by administration of chemical substance, Gene No. 1494: Unigene No. Rn.1430; for Behavior of gene caused by administration of chemical substance, Gene No. 2045: Unigene No. Rn.19329; for Behavior of gene caused by administration of chemical substance, Gene No. 2203: Unigene No. Rn.21240; for Behavior of gene caused by administration of chemical substance, Gene No. 533 / Behavior of gene caused by administration of chemical substance, Gene No. 725 / Behavior of gene caused by administration of chemical substance, Gene No. 1163 / Behavior of gene caused by administration of chemical substance, Gene No. 4973 / Behavior of gene caused by administration of chemical substance, Gene No. 4095 / Behavior of gene caused by administration of chemical substance, Gene No. 1334 / Behavior of gene caused by administration of chemical substance, Gene No. 6620 / Behavior of gene caused by administration of chemical substance, Gene No. 6303 / Behavior of gene caused by administration of chemical substance, Gene No. 5878 / Behavior of gene caused by administration of chemical substance, Gene No. 1131 / Behavior of gene caused by administration of chemical substance, Gene No. 1562 / Behavior of gene caused by administration of chemical substance, Gene No. 1741 / Behavior of gene caused by administration of chemical substance, Gene No. 893 / Behavior of gene caused by administration of chemical substance, Gene No. 6026 / Behavior of gene caused by administration of chemical substance, Gene No. 154 / Behavior of gene caused by administration of chemical substance, Gene No. 1993 / Behavior of gene caused by administration of chemical substance, Gene No. 813 / Behavior of gene caused by administration of chemical substance, Gene No. 2494 / Behavior of gene caused by administration of chemical substance, Gene No. 2546 / Behavior of gene caused by administration of chemical substance, Gene No. 3776 / Behavior of gene caused by administration of chemical substance, Gene No. 3929 / Behavior of gene caused by administration of chemical substance, Gene No. 1119 / Behavior of gene caused by administration of chemical substance, Gene No. 6742 / Behavior of gene caused by administration of chemical substance, Gene No. 5634: gene group (C); for Behavior of gene caused by administration of chemical substance, Gene No. 533: Unigene No. Rn.106184; for Behavior of gene caused by administration of chemical substance, Gene No. 725: Unigene No. Rn.108075; for Behavior of gene caused by administration of chemical substance, Gene No. 1163: Unigene No. Rn.11766; for Behavior of gene caused by administration of chemical substance, Gene No. 4973: Unigene No. Rn.118529; for Behavior of gene caused by administration of chemical substance, Gene No. 4095: Unigene No. Rn.119024; for Behavior of gene caused by administration of chemical substance, Gene No. 1334 / Behavior of gene caused by administration of chemical substance, Gene No. 6620: Unigene No. Rn.120914; for Behavior of gene caused by administration of chemical substance, Gene No. 6303: Unigene No. Rn.123063; for Behavior of gene caused by administration of chemical substance, Gene No. 5878: Unigene No. Rn.143213; for Behavior of gene caused by administration of chemical substance, Gene No. 1131: Unigene No. Rn.144946; for Behavior of gene caused by administration of chemical substance, Gene No. 1562: Unigene No. Rn.14744; for Behavior of gene caused by administration of chemical substance, Gene No. 1741: Unigene No. Rn.1647; for Behavior of gene caused by administration of chemical substance, Gene No. 893: Unigene No. Rn.164817; for Behavior of gene caused by administration of chemical substance, Gene No. 6026: Unigene No. Rn.167685; for Behavior of gene caused by administration of chemical substance, Gene No. 154: Unigene No. Rn.185941; for Behavior of gene caused by administration of chemical substance, Gene No. 1993: Unigene No. Rn.18728; for Behavior of gene caused by administration of chemical substance, Gene No. 813: Unigene No. Rn.201760; for Behavior of gene caused by administration of chemical substance, Gene No. 2494: Unigene No. Rn.23969; for Behavior of gene caused by administration of chemical substance, Gene No. 2546: Unigene No. Rn.24561; for Behavior of gene caused by administration of chemical substance, Gene No. 3776: Unigene No. Rn.43232; for Behavior of gene caused by administration of chemical substance, Gene No. 3929: Unigene No. Rn.4620; for Behavior of gene caused by administration of chemical substance, Gene No. 1119: Unigene No. Rn.9757; for Behavior of gene caused by administration of chemical substance, Gene No. 6742: Unigene No. Rn.9779; for Behavior of gene caused by administration of chemical substance, Gene No. 5634: Unigene No. Rn.9862; for Behavior of gene caused by administration of chemical substance, Gene No. 5726: gene group (D), Unigene No. Rn.9939
Procedure, shortened: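 Liver mRNA levels were compared with matched vehicle groups, with a shift of at least 1.5-fold up or down deemed significant unless its direction disagreed with other carcinogens. Test substances were dosed orally by gavage daily for 28 days to 5-week-old male F344 rats, four per group.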

liver = conditions: classification of the substance (Cr+/Cr−); cited from earlier work
rodent = conditions: classification of the substance (C+/C−); cited from earlier work
[2] = classification of the substance (M+/M−); cited from earlier work

| Structure (SMILES) | Behavior of gene caused by administration of chemical substance, Gene No. 4846 [1] | Behavior of gene caused by administration of chemical substance, Gene No. 2026 [1] | Behavior of gene caused by administration of chemical substance, Gene No. 4218 [1] | Behavior of gene caused by administration of chemical substance, Gene No. 6182 [1] | Behavior of gene caused by administration of chemical substance, Gene No. 5600 [1] | Behavior of gene caused by administration of chemical substance, Gene No. 1494 [1] | Behavior of gene caused by administration of chemical substance, Gene No. 2045 [1] | Behavior of gene caused by administration of chemical substance, Gene No. 2203 [1] | Behavior of gene caused by administration of chemical substance, Gene No. 533 [1] | Behavior of gene caused by administration of chemical substance, Gene No. 725 [1] | Behavior of gene caused by administration of chemical substance, Gene No. 1163 [1] | Behavior of gene caused by administration of chemical substance, Gene No. 4973 [1] | Behavior of gene caused by administration of chemical substance, Gene No. 4095 [1] | Behavior of gene caused by administration of chemical substance, Gene No. 1334 [1] | Behavior of gene caused by administration of chemical substance, Gene No. 6620 [1] | Behavior of gene caused by administration of chemical substance, Gene No. 6303 [1] | Behavior of gene caused by administration of chemical substance, Gene No. 5878 [1] | Behavior of gene caused by administration of chemical substance, Gene No. 1131 [1] | Behavior of gene caused by administration of chemical substance, Gene No. 1562 [1] | Behavior of gene caused by administration of chemical substance, Gene No. 1741 [1] | also measured |
| --- | --- | --- | --- | --- | --- | --- | --- | --- | --- | --- | --- | --- | --- | --- | --- | --- | --- | --- | --- | --- | --- |
| ClC(Cl)(Cl)Cl [TS003, Carbon tetrachloride] | + | + | + | + | + | + | + | + | + | − | + | + | − | − | − | − | − | − | − | + | Behavior of gene caused by administration of chemical substance, Gene No. 893 [1]: −; Behavior of gene caused by administration of chemical substance, Gene No. 6026 [1]: −; Behavior of gene caused by administration of chemical substance, Gene No. 154 [1]: +; Behavior of gene caused by administration of chemical substance, Gene No. 1993 [1]: −; Behavior of gene caused by administration of chemical substance, Gene No. 813 [1]: −; Behavior of gene caused by administration of chemical substance, Gene No. 2494 [1]: −; Behavior of gene caused by administration of chemical substance, Gene No. 2546 [1]: −; Behavior of gene caused by administration of chemical substance, Gene No. 3776 [1]: −; Behavior of gene caused by administration of chemical substance, Gene No. 3929 [1]: −; Behavior of gene caused by administration of chemical substance, Gene No. 1119 [1]: −; Behavior of gene caused by administration of chemical substance, Gene No. 6742 [1]: −; Behavior of gene caused by administration of chemical substance, Gene No. 5634 [1]: −; Behavior of gene caused by administration of chemical substance, Gene No. 5726 [1]: −; Liver carcinogenicity (liver): Cr+; Carcinogenicity (rodent): C+; Mutagenicity by Ames test [2]: M− |
| OC[C@@H](O)[C@@H](O)[C@H](O)[C@H](O)CO [TS009, D-Mannitol] | − | − | − | − | − | − | − | − | − | − | − | − | − | − | − | − | − | − | − | − | Behavior of gene caused by administration of chemical substance, Gene No. 893 [1]: −; Behavior of gene caused by administration of chemical substance, Gene No. 6026 [1]: −; Behavior of gene caused by administration of chemical substance, Gene No. 154 [1]: −; Behavior of gene caused by administration of chemical substance, Gene No. 1993 [1]: −; Behavior of gene caused by administration of chemical substance, Gene No. 813 [1]: −; Behavior of gene caused by administration of chemical substance, Gene No. 2494 [1]: −; Behavior of gene caused by administration of chemical substance, Gene No. 2546 [1]: −; Behavior of gene caused by administration of chemical substance, Gene No. 3776 [1]: −; Behavior of gene caused by administration of chemical substance, Gene No. 3929 [1]: −; Behavior of gene caused by administration of chemical substance, Gene No. 1119 [1]: −; Behavior of gene caused by administration of chemical substance, Gene No. 6742 [1]: −; Behavior of gene caused by administration of chemical substance, Gene No. 5634 [1]: −; Behavior of gene caused by administration of chemical substance, Gene No. 5726 [1]: −; Liver carcinogenicity (liver): Cr−; Carcinogenicity (rodent): C−; Mutagenicity by Ames test [2]: M− |
